# Laboratory results as given in patent US9127024B2 (Intrexon Corporation, priority 2013, dated 2015).
# Biological target: RheoSwitch® (CHO-K1_RS-1 cells, firefly Luciferase reporter) (Choristoneura fumiferana, UniProt O77240)
# Experiment: in vitro gene switch assay (fLUC Luciferase expression, potency screen)
# Assay type: cell-based
# Conditions: read-out: fLUC assay EC50, 24 hours with compound, 25 μM to 2.5 pM, figure in parentheses after a value not defined
# Description: Gene switch assays are disclosed, e.g., in U.S. Pat. Nos. 8,076,517; 7,456,315; 7,304,161; and 6,258,603.
# CHO-K1 cells were stably transfected with a plasmid (RS-1, FIG. 1) coding for firefly Luciferase (fLUC) under the control of the RheoSwitch® resulting in the stable cell line CHO-K1_RS-1. A master cell bank was created containing approximately 100 vials at 5×10^6 cells per vial. One vial of CHO-K1_RS-1 was thawed and cultured for two weeks prior to each in vitro potency screening.
# Twenty-four (24) hours prior to treatment with the control and test compounds the CHO-K1_RS-1 cells were seeded into white-opaque 384-well cell culture plates at 3,600 cells per well in 30 μl of culture medium. The cells were incubated in a humidified CO2 incubator at 37° C. until compound treatment.
# Compounds were prepared at 25 mM in 100% dry DMSO and stored at room temperature in sealed 1 ml tubes prior to subsequent dilution and assay. On the day of cell treatment the tubes containing the control and test compounds were sorted and the ligands transferred to a 96-well polypropylene plate for subsequent dilution. The compounds were diluted in 100% dry DMSO in an 8-point, 10-fold dilution series ranging from 25 mM to 2.5 nM using the Biomek FX automated liquid handler.
# The diluted compounds were then transferred to each well of 384-well polypropylene plate in quadruplicate resulting in a single 384-well plate with four replicates of each compound dilution in a different quadrant of the plate. Each well on the 384-well plate received 20 μl of diluted compound. The 384-well plates containing diluted compound and the plates containing cells in culture were loaded onto the Biomek FX and 30 nl of compound was delivered to each well containing cells using a 384-pin V&P Scientific Pin Tool. The resulting 1000-fold dilution (30 nl to 30 μl) generated a final dosing range of 25 μM to 2.5 pM in 0.1% DMSO. Two replicate plates were produced to supply a dedicated plate for the Luciferase expression assay and the APH cell viability assay.
# The cells were incubated with the compound for 24 hours in a humidified CO2 incubator at 37° C. Following incubation, the cells were assayed for Luciferase expression (fLUC assay) using the Steady Glo assay from Promega. Cells were equilibrated to room temperature for 15 minutes prior to reagent addition. Thirty micro liters (30 μl) of assay reagent was added to each well of the 384-well plate using the Biomek FX. The reagent was incubated with the cells for 10-120 minutes prior to reading on a Molecular Devices Spectramax L luminometer. The assay reagents were prepared as per the manufacturer's instructions.
# The Luciferase expression data was normalized to the baseline signal from cells treated with DMSO alone. The ratio of signal from treated cells to vehicle-treated cells was plotted and non-linear regress was performed using Graph Pad Prism software. EC50, (log)EC50 and Hill slope data was generated. Reporter gene expression, e.g., luciferase expression, serves as a proxy for the expression of a gene of interest. See, e.g., US 2009/0123441 and WO 2011/119773.
# Sequence of RheoSwitch® (CHO-K1_RS-1 cells, firefly Luciferase reporter) (O77240 1-513): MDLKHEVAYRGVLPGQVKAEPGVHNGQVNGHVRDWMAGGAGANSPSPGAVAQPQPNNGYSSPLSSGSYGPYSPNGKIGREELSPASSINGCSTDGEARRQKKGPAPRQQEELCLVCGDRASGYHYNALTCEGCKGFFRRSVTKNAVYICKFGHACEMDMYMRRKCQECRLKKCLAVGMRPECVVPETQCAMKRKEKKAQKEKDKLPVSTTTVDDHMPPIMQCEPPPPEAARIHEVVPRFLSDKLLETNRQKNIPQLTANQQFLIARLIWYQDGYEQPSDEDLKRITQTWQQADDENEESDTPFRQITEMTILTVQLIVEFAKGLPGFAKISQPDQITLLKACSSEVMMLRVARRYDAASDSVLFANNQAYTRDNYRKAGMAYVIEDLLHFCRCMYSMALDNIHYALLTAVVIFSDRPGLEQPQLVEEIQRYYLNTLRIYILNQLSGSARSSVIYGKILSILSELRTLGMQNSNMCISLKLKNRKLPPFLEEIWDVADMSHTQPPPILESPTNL
row,SMILES,EC50
1,CCC(N(NC(=O)c1ccc2c(c1)B(O)OC2)C(=O)c1cc(C)cc(C)c1)C(C)(C)C (racemic) [Cpd. No. 51],432 nM
2,CCC(CF)N(NC(=O)c1ccc2c(c1C)OCCOB2O)C(=O)c1cc(C)cc(C)c1 (racemic) [Cpd. No. 82],2610 nM
3,"Cc1cc(C)cc(C(=O)N(NC(=O)c2ccc3c(c2C)OCCOB3O)C(c2ccccc2)C(C)(C)C)c1 (racemic) [Cpd. No. 83, N′-(2,2-dimethyl-1-phenylpropyl)-N′-(3,5-dimethylbenzoyl)-1-hydroxy-6-methyl-3,4-dihydro-1H-benzo[c][1,5,2]dioxaborepine-7-carbohydrazide]",65.9 nM
4,CCC(c1ccccc1)N(NC(=O)c1ccc(B(O)O)cc1F)C(=O)c1cc(C)cc(C)c1 (racemic) [compound 18],203 nM
5,CCC(c1ccccc1)N(NC(=O)c1ccc(B(O)O)cc1F)C(=O)c1cc(C)cc(C)c1 (racemic) [compound 19],258 nM
6,CCC(N(NC(=O)c1cccc(OC)c1C)C(=O)c1cccc(B(O)O)c1)C(C)(C)C (racemic) [compound 32],2880 nM
7,CCC(N(NC(=O)c1cccc(OC)c1C)C(=O)c1cc(F)cc(B(O)O)c1)C(C)(C)C (racemic) [compound 35],2600 nM
8,CCC(N(NC(=O)c1cccc(OC)c1C)C(=O)c1cc(B(O)O)cc([N+](=O)[O-])c1)C(C)(C)C (racemic) [compound 36],> 25000 nM
9,CCC(N(NC(=O)c1cccc(OC)c1C)C(=O)c1cc(OC)cc(B(O)O)c1)C(C)(C)C (racemic) [compound 37],2110 nM
10,CCCC(N(NC(=O)c1cccc(B2OC(C)(C)C(C)(C)O2)c1C)C(=O)c1cccc(B2OC(C)(C)C(C)(C)O2)c1C)C(C)(C)C (racemic) [compound 41],~14000 nM
11,CCCC(N(NC(=O)c1cccc(B2OC(C)(C)C(C)(C)O2)c1C)C(=O)c1cc(C)cc(C)c1)C(C)(C)C (racemic) [compound 44],250 nM
12,CCC(N(NC(=O)c1cccc(B2OC(C)(C)C(C)(C)O2)c1C)C(=O)c1cc(OC)c(C)c(OC)c1)C(C)(C)C (racemic) [compound 47],1640 nM
13,CCCC(N(NC(=O)c1cccc(B2OC(C)(C)C(C)(C)O2)c1C)C(=O)c1cc(OC)ccc1OC)C(C)(C)C (racemic) [compound 48],22200 nM
14,Cc1cc(C)cc(C(=O)N(NC(=O)c2cccc(B(O)O)c2Cl)C(C)(C)C)c1 [Cpd. No. 3],1660 nM
15,CCC[C@@H](N(NC(=O)c1cccc(B(O)O)c1F)C(=O)c1cc(C)cc(C)c1)C(C)(C)C [Cpd. No. 6],92.7 nM
16,Cc1cc(C)cc(C(=O)N(NC(=O)c2ccc(B(O)O)cc2)C(C)(C)C)c1 [Cpd. No. 7],1010 nM
17,CCC[C@@H](N(NC(=O)c1ccc(B(O)O)cc1)C(=O)c1cc(C)cc(C)c1)C(C)(C)C [Cpd. No. 8],103 nM
18,"Cc1cc(C)cc(C(=O)N(NC(=O)c2ccc(B(O)O)c(F)c2)C(C)(C)C)c1 [Cpd. No. 23, (4-(2-(tert-butyl)-2-(3,5-dimethylbenzoyl) hydrazinecarbonyl)-2-fluorophenyl)boronic acid]",1800 nM
19,"CCC[C@@H](N(NC(=O)c1c(F)cc(B(O)O)cc1F)C(=O)c1cc(C)cc(C)c1)C(C)(C)C [Cpd. No. 24, (R)-(4-(2-(3,5-dimethylbenzoyl)-2-(2,2-dimethylhexan-3-yl)hydrazinecarbonyl)-3,5-difluorophenyl)boronic acid]",85.7 nM
20,"Cc1cc(C)cc(C(=O)N(NC(=O)c2c(F)cc(B(O)O)cc2F)C(C)(C)C)c1 [Cpd. No. 25, (4-(2-(tert-butyl)-2-(3,5-dimethylbenzoyl) hydrazinecarbonyl)-3,5-difluorophenyl)boronic acid]",796 nM
21,"CC[C@@H](N(NC(=O)c1ccc(B(O)O)c(OCCOC)c1C)C(=O)c1cc(C)cc(C)c1)C(C)(C)C [Cpd. No. 26, (R)-(4-(2-(3,5-dimethylbenzoyl)-2-(2,2-dimethylpentan-3-yl)hydrazinecarbonyl)-2-(2-methoxyethoxy)-3-methylphenyl)boronic acid]",1670 nM
22,"CCC[C@@H](N(NC(=O)c1ccc(CCCB(O)O)c(OC)c1C)C(=O)c1cc(C)cc(C)c1)C(C)(C)C [Cpd. No. 27, (R)-(3-(4-(2-(3,5-dimethylbenzoyl)-2-(2,2-dimethylhexan-3-yl)hydrazinecarbonyl)-2-methoxy-3-methyl-phenyl)propyl)boronic acid]",270 nM
23,CCC[C@@H](N(NC(=O)c1ccc(CCCB(O)O)c(OC(F)F)c1C)C(=O)c1cc(C)cc(C)c1)C(C)(C)C [Cpd. No. 28],57.7 nM
24,"CC[C@@H](N(NC(=O)c1cccc(OC)c1C)C(=O)c1cc(C)cc(B(O)O)c1)C(C)(C)C [Cpd. No. 33, (R)-(3-(1-(2,2-dimethylpentan-3-yl)-2-(3-methoxy-2-methylbenzoyl)hydrazinecarbonyl)-5-methylphenyl)boronic acid]",191 nM
25,"CCCCB1OCc2ccc(C(=O)NN(C(=O)c3ccccc3)C(C)(C)C)c(F)c21 [Cpd. No. 64, N′-benzoyl-N′-(tert-butyl)-1-butyl-7-fluoro-1,3-dihydrobenzo[c][1,2]oxaborole-6-carbohydrazide]",> 25000 nM
26,"Cc1cc(C)cc(C(=O)N(NC(=O)c2ccc3c(c2F)COB3O)C(C)(C)C)c1 [Cpd. No. 65, N′-(tert-butyl)-N′-(3,5-dimethylbenzoyl)-4-fluoro-1-hydroxy-1,3-dihydrobenzo[c][1,2]oxaborole-5-carbohydrazide]",3180 nM
27,"[2H]C([2H])([2H])c1cc(C(=O)N(NC(=O)c2ccc3c(c2F)COB3O)C(C)(C)C)cc(C([2H])([2H])[2H])c1 [Cpd. No. 66, N′-(3,5-bis(methyl-d3)benzoyl)-N′-(tert-butyl)-4-fluoro-1-hydroxy-1,3-dihydrobenzo[c][1,2]oxaborole-5-carbohydrazide]",3270 nM
28,Cc1cc(C)cc(C(=O)N(NC(=O)c2ccc3c(c2C)OB(O)CCC3)C(C)(C)C)c1 [Cpd. No. 69],203 nM
29,"CCC[C@@H](N(NC(=O)c1ccc2c(c1C)OB(O)CCC2)C(=O)c1cc(C)cc(C)c1)C(C)(C)C [Cpd. No. 70, (R)—N′-(3,5-dimethylbenzoyl)-N′-(2,2-dimethylhexan-3-yl)-2-hydroxy-9-methyl-2,3,4,5-tetrahydrobenzo[f][1,2]oxaborepine-8-carbohydrazide]",40.6 nM

# Same assay, conditions: read-out: fLUC assay EC50 Run 1, 24 hours with compound, Run 1
row,SMILES,EC50
1,"CC[C@@H](N(NC(=O)c1ccc(B(O)O)cc1F)C(=O)c1cc(C)cc(C)c1)C(C)(C)C [Cpd. No. 85, (R)-(4-(2-(3,5-dimethylbenzoyl)-2-(2,2-dimethylpentan-3-yl)hydrazine-1-carbonyl)-3-fluorophenyl)boronic acid]",69.4 nM
2,"CC[C@@H](N(NC(=O)c1ccc(COC)c(B(O)O)c1F)C(=O)c1cc(C)cc(C)c1)C(C)(C)C [Cpd. No. 86, (R)-(3-(2-(3,5-dimethylbenzoyl)-2-(2,2-dimethylpentan-3-yl)hydrazine-1-carbonyl)-2-fluoro-6-(methoxymethyl)phenyl)boronic acid]",48.8 nM
3,"CC[C@@H](N(NC(=O)c1ccc(COC)c(B2OC(C)(C)C(C)(C)O2)c1F)C(=O)c1cc(C)cc(C)c1)C(C)(C)C [Cpd. No. 87, (R)-N′-(3,5-dimethylbenzoyl)-N′-(2,2 dimethylpentan-3-yl)-2-fluoro-4-(methoxymethyl)-3-(4,4,5,5-tetramethyl-1,3,2-dioxaborolan-2-yl)benzohydrazide]",47.6 nM
4,"COCc1ccc(C(=O)NN(C(=O)c2cc(C)cc(C)c2)C(C)(C)C)c(F)c1B(O)O [Cpd. No. 88, (3-(2-(tert-butyl)-2-(3,5-dimethylbenzoyl)hydrazine-1-carbonyl)-2-fluoro-6-(methoxymethyl)phenyl)boronic acid]",667 nM
5,"Cc1cc(C)cc(C(=O)N(NC(=O)c2ccc3c(c2F)COB3O)C(c2ccccc2)C(C)(C)C)c1 (stereo not drawn) [Cpd. No. 89, N′-(2,2-dimethyl-1-phenylpropyl)-N′-(3,5-dimethylbenzoyl)-4-fluoro-1-hydroxy-1,3-dihydrobenzo[c][1,2]oxaborole-5-carbohydrazide]",~362 nM

# Same assay, conditions: read-out: fLUC assay EC50 Run 2, 24 hours with compound, Run 2
row,SMILES,EC50
1,"CC[C@@H](N(NC(=O)c1ccc(B(O)O)cc1F)C(=O)c1cc(C)cc(C)c1)C(C)(C)C [Cpd. No. 85, (R)-(4-(2-(3,5-dimethylbenzoyl)-2-(2,2-dimethylpentan-3-yl)hydrazine-1-carbonyl)-3-fluorophenyl)boronic acid]",66.6 nM
2,"CC[C@@H](N(NC(=O)c1ccc(COC)c(B(O)O)c1F)C(=O)c1cc(C)cc(C)c1)C(C)(C)C [Cpd. No. 86, (R)-(3-(2-(3,5-dimethylbenzoyl)-2-(2,2-dimethylpentan-3-yl)hydrazine-1-carbonyl)-2-fluoro-6-(methoxymethyl)phenyl)boronic acid]",74.5 nM
3,"CC[C@@H](N(NC(=O)c1ccc(COC)c(B2OC(C)(C)C(C)(C)O2)c1F)C(=O)c1cc(C)cc(C)c1)C(C)(C)C [Cpd. No. 87, (R)-N′-(3,5-dimethylbenzoyl)-N′-(2,2 dimethylpentan-3-yl)-2-fluoro-4-(methoxymethyl)-3-(4,4,5,5-tetramethyl-1,3,2-dioxaborolan-2-yl)benzohydrazide]",96.4 nM
4,"COCc1ccc(C(=O)NN(C(=O)c2cc(C)cc(C)c2)C(C)(C)C)c(F)c1B(O)O [Cpd. No. 88, (3-(2-(tert-butyl)-2-(3,5-dimethylbenzoyl)hydrazine-1-carbonyl)-2-fluoro-6-(methoxymethyl)phenyl)boronic acid]",840 nM
5,"Cc1cc(C)cc(C(=O)N(NC(=O)c2ccc3c(c2F)COB3O)C(c2ccccc2)C(C)(C)C)c1 (stereo not drawn) [Cpd. No. 89, N′-(2,2-dimethyl-1-phenylpropyl)-N′-(3,5-dimethylbenzoyl)-4-fluoro-1-hydroxy-1,3-dihydrobenzo[c][1,2]oxaborole-5-carbohydrazide]",~303 nM
